This is an account of results in ChEMBL document CHEMBL1212835, “Identification of a potent and noncytotoxic inhibitor of melanin production” (Bioorg Med Chem, 2010).

The data set in a line: Cytotoxicity against mouse Melan-a cells assessed as cell viability at 30 uM. The data set is classed as cell-based. The conditions noted are these: Melan-a cells, read-out: Activity.
Consider `CCc1ccc(C(=O)Nc2cccc(C)c2)cc1`, for which the viability at 30 µM was -2.2%.

Turning to `COc1cc(NC(=O)c2cccc(C)c2)cc(OC)c1`, the viability at 30 µM is -12.6%.

Consider `COc1cccc(NC(=O)c2cccc(OC)c2)c1`, for which the viability at 30 µM is -8.4%.

`COc1ccc(NC(=O)c2ccco2)cc1`: the viability at 30 µM was found to be 13.6%.

Consider `COC(=O)c1cccc(NC(=O)c2ccco2)c1`, for which the viability at 30 µM is 0.4%.

`COc1ccccc1NC(=O)c1ccc(C#N)cc1`: the viability at 30 µM is -3.1%.

In the case of `CCCCOc1ccc(NC(=O)c2ccccc2C)cc1`, the viability at 30 µM was 9.9%.

For the compound `COc1cccc(C(=O)Nc2ccccc2OC)c1`, the viability at 30 µM stood at 10.1%.

`COc1ccc(C(=O)Nc2cc(C)cc(C)c2)cc1`: the viability at 30 µM is 31.9%.

`COc1ccc(OC)c(NC(=O)c2ccco2)c1`: the viability at 30 µM was -17%.

`COc1ccc(NC(=O)c2ccc(C)cc2)c(OC)c1`: the viability at 30 µM was 14.4%.

`CCc1ccc(C(=O)Nc2cc(OC)ccc2OC)cc1`: the viability at 30 µM is -19.8%.

`COc1cc(NC(=O)c2ccc(C#N)cc2)cc(OC)c1`: the viability at 30 µM turned out to be 9.6%.

As to `COC(=O)c1ccccc1NC(=O)c1ccc(OC)cc1`, the viability at 30 µM came to 31.1%.

Take `COc1ccc(C(=O)Nc2ccc(C)cc2)cc1`: the viability at 30 µM is 0.7%.

With `COC(=O)c1ccc(NC(=O)c2ccc(C)cc2)cc1`, the viability at 30 µM was determined as 11.2%.

On to `CCc1ccc(C(=O)Nc2cccc(OC)c2)cc1`, for which the viability at 30 µM is 6.3%.

Consider `COc1ccc(NC(=O)c2ccc(C#N)cc2)cc1`, for which the viability at 30 µM was found to be 8.8%.

For the compound `CCc1ccc(C(=O)Nc2ccc(C)cc2)cc1`, the viability at 30 µM came to 1.8%.

Regarding `COc1cccc(C(=O)Nc2cccc(C)c2)c1`, the viability at 30 µM is 12%.

For the compound `CC(=O)c1ccc(NC(=O)c2ccccc2C)cc1`, the viability at 30 µM worked out at 0.1%.

For the compound `COc1ccc(NC(=O)c2cccc(C)c2)c(OC)c1`, the viability at 30 µM stood at 3.2%.

In the case of `COc1ccc(C(=O)Nc2cccc(OC)c2)cc1`, the viability at 30 µM turned out to be 0.6%.

Turning to `COc1ccc(C(=O)Nc2ccc(C(C)=O)cc2)cc1`, the viability at 30 µM was 0.7%.

`CCCCOc1ccc(NC(=O)c2cccc(OC)c2)cc1`: the viability at 30 µM stood at 19.1%.

On to `Cc1ccc(C(=O)Nc2cccc(C)c2)cc1`, for which the viability at 30 µM was found to be 14.3%.

Regarding `Cc1cc(C)cc(NC(=O)c2ccc(C#N)cc2)c1`, the viability at 30 µM was determined as 31.6%.

For the compound `CCc1ccc(C(=O)Nc2cc(C(F)(F)F)cc(C(F)(F)F)c2)cc1`, the viability at 30 µM came out at 16.5%.

In the case of `CC(=O)c1ccc(NC(=O)c2ccc(C)cc2)cc1`, the viability at 30 µM was found to be 11.2%.

On to `COc1ccc(NC(=O)c2cccc(OC)c2)cc1`, for which the viability at 30 µM was 0.5%.

For `Cc1ccc(NC(=O)c2cccc(C)c2)cc1`, the viability at 30 µM is -2.4%.

Consider `CCc1ccc(C(=O)Nc2ccccc2C(=O)OC)cc1`, for which the viability at 30 µM was determined as 18.9%.

As to `CCc1ccc(C(=O)Nc2ccc(OC)cc2)cc1`, the viability at 30 µM was -9.9%.

On to `Cc1cccc(NC(=O)c2ccccc2C)c1`, for which the viability at 30 µM stood at 5.8%.

As for `COc1ccc(NC(=O)c2ccccc2C)c(OC)c1`, the viability at 30 µM is -3.5%.

In the case of `COc1cc(NC(=O)c2cccc(OC)c2)cc(OC)c1`, the viability at 30 µM worked out at 9.6%.

Turning to `CCCCOc1ccc(NC(=O)c2ccc(C#N)cc2)cc1`, the viability at 30 µM was -4.4%.

Turning to `COc1cc(NC(=O)c2ccco2)cc(OC)c1`, the viability at 30 µM was -1.3%.

With `COc1ccc(C(=O)Nc2cc(OC)ccc2OC)cc1`, the viability at 30 µM is -8.3%.

In the case of `COC(=O)c1ccc(NC(=O)c2ccc(OC)cc2)cc1`, the viability at 30 µM was -5.6%.

As for `COC(=O)c1ccccc1NC(=O)c1cccc(OC)c1`, the viability at 30 µM is 11.1%.

`COC(=O)c1ccccc1NC(=O)c1ccc(C)cc1`: the viability at 30 µM was determined as 20.1%.

Turning to `COc1ccc(NC(=O)c2ccco2)c(OC)c1`, the viability at 30 µM was -24.1%.

With `COc1ccc(NC(=O)c2cccc(C)c2)cc1`, the viability at 30 µM is -0.4%.

Turning to `CCCCOc1ccc(NC(=O)c2ccc(C)cc2)cc1`, the viability at 30 µM was -2.4%.

For the compound `COc1ccccc1NC(=O)c1cccc(C)c1`, the viability at 30 µM amounted to 11.1%.

For the compound `COc1cc(NC(=O)c2ccc(C)cc2)cc(OC)c1`, the viability at 30 µM stood at 19.2%.

Consider `Cc1cccc(NC(=O)c2ccco2)c1`, for which the viability at 30 µM was -1.3%.

Regarding `Cc1cc(C)cc(NC(=O)c2ccccc2C)c1`, the viability at 30 µM was determined as 25.6%.

Turning to `COc1ccc(C(=O)Nc2cccc(C)c2)cc1`, the viability at 30 µM was -1.7%.

For the compound `COC(=O)c1cccc(NC(=O)c2ccc(C#N)cc2)c1`, the viability at 30 µM amounted to 0.8%.

As to `Cc1ccc(NC(=O)c2ccccc2C)cc1`, the viability at 30 µM is -0.2%.

As for `CCc1ccc(C(=O)Nc2ccc(C(C)=O)cc2)cc1`, the viability at 30 µM was 3.4%.

Consider `COC(=O)c1cccc(NC(=O)c2ccccc2C)c1`, for which the viability at 30 µM was determined as 4.6%.

For the compound `CCCCOc1ccc(NC(=O)c2ccco2)cc1`, the viability at 30 µM stood at 3.7%.

Turning to `COc1cccc(C(=O)Nc2ccc(C)cc2)c1`, the viability at 30 µM turned out to be 7.5%.

Regarding `Cc1ccc(C(=O)Nc2cc(C(F)(F)F)cc(C(F)(F)F)c2)cc1`, the viability at 30 µM was found to be 0.3%.

For `COc1ccc(OC)c(NC(=O)c2ccccc2C)c1`, the viability at 30 µM came to 8.6%.

For `COc1ccc(NC(=O)c2ccc(C#N)cc2)c(OC)c1`, the viability at 30 µM was 7.2%.

With `COC(=O)c1ccccc1NC(=O)c1ccc(C#N)cc1`, the viability at 30 µM was found to be 8%.

Turning to `COc1ccc(OC)c(NC(=O)c2ccc(C#N)cc2)c1`, the viability at 30 µM is -1.7%.

As for `Cc1ccccc1C(=O)Nc1cc(C(F)(F)F)cc(C(F)(F)F)c1`, the viability at 30 µM is 15.1%.

Regarding `COc1ccc(NC(=O)c2ccc(C)cc2)cc1`, the viability at 30 µM was 4.9%.

In the case of `Cc1cc(C)cc(NC(=O)c2ccco2)c1`, the viability at 30 µM turned out to be 14.2%.

On to `COC(=O)c1ccc(NC(=O)c2cccc(C)c2)cc1`, for which the viability at 30 µM was 12.9%.

For the compound `COC(=O)c1ccc(NC(=O)c2ccccc2C)cc1`, the viability at 30 µM was determined as 0.8%.

With `CCCCOc1ccc(NC(=O)c2ccc(CC)cc2)cc1`, the viability at 30 µM was -10.8%.

With `Cc1ccc(NC(=O)c2ccco2)cc1`, the viability at 30 µM was 7.9%.

Consider `COC(=O)c1ccc(NC(=O)c2ccco2)cc1`, for which the viability at 30 µM was -8.4%.

As for `O=C(Nc1cc(C(F)(F)F)cc(C(F)(F)F)c1)c1ccco1`, the viability at 30 µM stood at 31.9%.

As for `Cc1cccc(NC(=O)c2cccc(C)c2)c1`, the viability at 30 µM is -0.1%.

Turning to `COC(=O)c1cccc(NC(=O)c2cccc(OC)c2)c1`, the viability at 30 µM amounted to 20.1%.

In the case of `COc1ccc(OC)c(NC(=O)c2ccc(C)cc2)c1`, the viability at 30 µM was -3.2%.

With `CCCCOc1ccc(NC(=O)c2cccc(C)c2)cc1`, the viability at 30 µM came to 4.8%.

For the compound `COc1ccc(C(=O)Nc2cc(C(F)(F)F)cc(C(F)(F)F)c2)cc1`, the viability at 30 µM came to 21%.

As to `COC(=O)c1cccc(NC(=O)c2ccc(OC)cc2)c1`, the viability at 30 µM came to 18.8%.

On to `Cc1ccc(NC(=O)c2ccc(C#N)cc2)cc1`, for which the viability at 30 µM was 10.9%.

For `COC(=O)c1ccc(NC(=O)c2cccc(OC)c2)cc1`, the viability at 30 µM came to 13.7%.

`Cc1ccc(C(=O)Nc2cc(C)cc(C)c2)cc1`: the viability at 30 µM was determined as 30.9%.

`CCc1ccc(C(=O)Nc2ccccc2OC)cc1`: the viability at 30 µM came out at 13.5%.

For `COc1ccccc1NC(=O)c1ccco1`, the viability at 30 µM is -5.4%.
